According to patent US4619942A, “Inhibition of Respiratory Syncytial virus-induced cell fusion by amidino compounds” (priority 1983, dated 1986):
Read-outs that look alike come from different tables or passages of the source.

Columns and labels:
RS virus [1] = conditions: moi 1-2, control titers 1-5 × 10^7
cell growth = conditions: cited from earlier work
RS virus [2] = assay: RS virus cytopathology / syncytium formation in Hep-2 cells (Table 3); conditions: for Effect on RS virus cytopathology (syncytia) / Suppression of RS virus syncytia (in words): Hep-2; for Effect on RS virus cytopathology (syncytia): added 2 hour post infection

Row | Compound | Single cycle yield of RS virus (RS virus titers) (RS virus [1]; 10 μM) | Effect on RS virus cytopathology (syncytia) (RS virus [2]; 10 μM) | Single cycle yield of RS virus (RS virus titers) (RS virus [1]; 100 μM) | Inhibition of RS virus / RS virus-induced cell fusion (general statement) (RS virus [2]) | Effect on RS virus cytopathology (syncytia) (RS virus [2]; 0.1 μM) | Effect on RS virus cytopathology (syncytia) (RS virus [2]; 1.0 μM) | Suppression of RS virus syncytia (in words) (RS virus [2]) | Cytotoxicity relative to other compounds (in words) (Hep-2 cells) | further results
1 | N=C(N)c1ccccc1 [Compound 1, Benzamidine, reference compound] | – | – | – | – | – | – | – | – | Single cycle yield of RS virus (RS virus titers) (RS virus [1]; 50 μM): 1.1 × 10^7 TCID50/ml; Concentration reducing cell growth rates (cell growth): greater than 500 μM; Effect on RS virus cytopathology (syncytia) (RS virus [2]; 50 μM): S
2 | N=C(N)c1ccc(OCCCCCCOc2ccccc2)cc1 [Compound 3, 1-(4-Amidinophenoxy-6-phenoxyhexane] | 3.5 × 10^7 TCID50/ml | S | – | – | – | – | – | – | Pattern of toxicity compared with Hep-2 cells (A549): identical pattern of toxicity; Pattern of toxicity compared with Hep-2 cells (BHK-21): identical pattern of toxicity; Pattern of toxicity compared with Hep-2 cells (CV-1): identical pattern of toxicity
3 | N=C(N)c1ccc(OCCCCCCCCOc2ccccc2)cc1 [Compound 4, 1-(4-Amidinophenoxy)-8-phenoxyoctane] | 3.5 × 10^7 TCID50/ml | S | – | – | – | – | – | – | –
4 | N=C(N)c1ccc2nc(CCc3nc4ccc(C(=N)N)cc4[nH]3)[nH]c2c1 [Compound 8, 1,2-Bis(5-amidino-2-benzimidazolyl)ethane] | 6.3 × 10^7 TCID50/ml | – | 7.9 × 10^7 TCID50/ml | inhibitively effective against RS virus | S | S | lower activity | – | –
5 | N=C(N)c1ccc2[nH]ccc2c1 [Compound 9, 5-Amidinoindole] | 2.9 × 10^7 TCID50/ml | – | 6.3 × 10^7 TCID50/ml | inhibitively effective against RS virus | S | S | – | – | –
6 | N=C(N)c1ccc2occc2c1 [Compound 10, 5-Amidinobenzofuran] | 1.1 × 10^7 TCID50/ml | S | 6.3 × 10^7 TCID50/ml | – | – | – | – | – | Effect on RS virus cytopathology (syncytia) (RS virus [2]; 100 μM): S
7 | N=C(N)c1ccc2nc[nH]c2c1 [Compound 11, 5-Amidinobenzimidazole] | – | S | 8.7 × 10^7 TCID50/ml | inhibitively effective against RS virus | – | S | suppressed the appearance of the characteristic syncytia | possessed the same or even less toxic activity than benzamidine | –
8 | Cn1ccc2cc(C(=N)N)ccc21 [Compound 12, 5-Amidino-1-methylindole] | – | – | – | inhibitively effective against RS virus | – | – | suppressed the appearance of the characteristic syncytia | intermediate in their cytotoxicity | –
9 | N=C(N)c1ccc(Cn2ccc3cc(C(=N)N)ccc32)cc1 [Compound 13, 5-Amidino-1-(4-amidinobenzyl)indole] | – | – | – | inhibitively effective against RS virus | S | S | suppressed the appearance of the characteristic syncytia | intermediate in their cytotoxicity | –
